One data set relates to MCF-7 cells. The experiment in a line: Stability in aqueous solution (media, activity on MCF-7 by XTT). Type of data set: physicochemical, human. Particulars: stored at 4° C. for 3 days. Here is the method: To assess strigolactone analogs stability in aqueous solution, each strigolactone analog was diluted to the desired concentration in media and stored at 4° C. for 3 days, at which time the strigolactone analog containing media was overlayed onto MCF-7 cells seeded into 96 well plates in phenol free DMEM supplemented with 5% charcoal stripped serum. After 3 days growth and viability was assessed (XTT, ATCC) and results compared to cells treated with freshly diluted strigolactone analog (FIG. 15) (absorbance readings presented as % of controls. Average+SD). […] For this reason all strigolactone analogs were diluted fresh from acetone stocks into media to desired concentrations and overlayed onto cells within 1 hour. Where necessary, media was refreshed every 3 days.

In data set [1] the test system is MCF-7 secondary mammospheres. The experiment in a line: cells. It is filed as cell-based. Particulars: Homo sapiens, MCF7, 120 h. Here is the method:
Adherent cells were gently trypsinized, (0.05% trypsin/EDTA) washed twice in PBS and filtered through a […] cell sieve to obtain a single cell suspensions. Cells were diluted to a concentration of 10,000 cell/ml in serum-free phenol-red free MEBM (MEGM Bulletkit, Lonza) supplemented with 5 μg/ml bovine insulin, 20 ng/ml recombinant epidermal growth factor, 20 ng/ml basic fibroblast growth factor (Gibco), 1×B27 supplement, 0.5 μg/ml hydrocortisone (MEGM Bulletkit, Lonza). For MDA-MB-231 mammosphere cultures serum-free phenol red-free CnT-27 medium with growth additives (CellnTEC Advanced cell systems, Bern, Switzerland) was used as previously described. 0.1 ml was seeded per well of a Ultralow attachment 96 well plates. The following day the indicated doses of GR-24 (ppm) or vehicle alone (0.6% acetone f/c) were added. Media was replenished every 3-4 days. Self-renewal capacity of the mammospheres was determined by re-plating and producing further generations of mammospheres. Secondary mammospheres were cultivated by dissociation (trypsinization with gently vortexing) of 10-14 day old primary mammospheres. Single cell suspensions were obtained as described above.
Mammosphere viability was assessed by XTT assay (ATCC). 5 days after addition of the indicated concentrations of GR-24, cell viability was determined. […] To further investigate GR-24 induced inhibition of mammosphere formation, the expression of breast stem cells markers were examined.

The subject of data set [2] is Arabidopsis thaliana wild type root tips. The experiment in a line: Root-tip structure and cellular morphology. It is filed as in vivo. To be noted: WT seedlings. Here is the method: Seeds of homozygous lines of Arabidopsis thaliana wild type (WT; Columbia; Col-0) and max2-1 mutant (http://abrc.osu.edu/) were surface-sterilized and germinated on 1/2 Murashige and Skoog (MS) plates supplemented with 1% sucrose and solidified with 0.7% agar. Plates were incubated vertically in the dark at 4° C. for two days to synchronize germination. Three days after germination, seedlings were gently transferred using forceps to 1/2 MS plates containing various concentrations of GR-24 as a mixture of four diastereomers: (±)-GR-24 and (±)-2′-epi-GR-24. The root tip of the transferred seedling was marked on the plates. The plates remained unsealed to prevent accumulation of gases (e.g., ethylene), and were positioned in an upright 45° position, and incubated at 22° C. with a light intensity of […] m-2 s-1 provided by white fluorescent tubes and under a photoperiod of 16 hours exposure to light/8 hours in the dark for 6-12 days. […] GR-24, ST-357 and ST-362 were initially dissolved in acetone to give a 4.5 mM, 10 μM and 10 μM solutions, respectively, which were then further diluted with double-distilled sterile water (DDW). […] Where differences were recorded between non-treated and acetone controls, the comparison was made between GR-24, ST-357 and ST-362-treated and acetone-treated roots. […]

In the next data set the test system is MDA-MB-436. Description: Cell cycle analysis (propidium iodide, flow cytometry). To be noted: 10 ppm, 48 hours. Type of data set: cell-based, human. Here is the method: (§1) Adherent cells were trypsinyzed, washed twice with PBS and filtered through a […] cell sieve. DNA content was assessed by flow cytometry. Cells were seeded at densities of 1.5×10^5 cells (MDA-MB-231, MDA-MB-436), or 4×10^5 cells (MCF-7 and MCF10A), or 2×10^5 cells (SW480, HT-29), or 5×10^5 cells (HCT116), per well in DMEM with 10% FBS in 6-well plate culture dishes. […] After 48 hours, cells were washed twice with PBS (pH 7.4), centrifuged at 360 g for 10 minutes at 4° C., and fixed in chilled ethanol (70%; v/v in PBS) with gentle vortex mixing. To determine their DNA contents, the cells were stained with 40 μg/ml propidium iodide (hereinafter PI) and analyzed using a FACSCalibur flow cytometer and CellQuest analysis software (Becton Dickinson, San Jose, Calif.). Where phosphoHistone-H3 staining was carried out, cells were incubated with polyclonal antibody against phosphoHistone H3 and then with secondary Goat anti-rabbit IgG-conjugated to FITC prior to PI staining.
For orientation: In flow cytometry, cells or beads pass a laser one at a time.

The subject of another data set is MCF-7. The description is as above. It is filed as cell-based, human. To be noted: 10 ppm, 48 hours. Here is the method: as §1
In another data set the test system is Candida oleophila. The experiment in a line: Yeast cell culture growth (OD). It is filed as cell-based. To be noted: 10 μM, apparent 8 hours after application. Here is the method:
Saccharomyces cerevisiae and Candida oleophila yeast cells were grown overnight in a reach nutrient media at 28° C., at 150 rpm. Following, they were diluted to 0.4 OD in low nutrient media (Lily) and were divided into 96 wells. The cells were treated with GR-24 or ST-362, at the indicated concentrations. Cell culture growth was monitored every hour for 17 hours, at 28° C., with gentle shake before each OD read. OD was determined using fluorometer. Statistical differences between curves were analyzed using compareGrowthCurves function from the Statistical Modeling package, statmod (http://bioinf.wehi.edu.au/software/compareCurves/), significance was determined once P≤0.05.

[3] abbreviates: read-out: Mammosphere viability.

This note sets out measurements from US10208007B2, “Use of strigolactones and strigolactone analogs for treating proliferative conditions” (The State of Israel, Ministry of Agriculture & Rural …, priority 2011, dated 2019).

As usually defined, the viability is the share of living cells, or the viability signal relative to a control.

Take `CC1=CC(O/C=C2\Cc3c(n(C)c4ccccc34)C2=O)OC1=O` (racemic) [EG-5, (±) (2E)-4-methyl-2-(4-methyl-5-oxo-2,5-dihydrofuran-2-yloxymethylene)-1,4-dihydro-2H-cyclopenta[b]indol-3-one]: the “Stability in aqueous solution: activity versus freshly diluted analog” value with MCF-7 cells is “completely failed to inhibit MCF-7 growth”.

On to `CC1=C[C@H](O/C=C2/C(=O)O[C@@H]3c4ccccc4C[C@H]23)OC1=O` (relative stereo) [GR-24, (3aR*,8bS*,E)-3-(((R*)-4-methyl-5-oxo-2,5-dihydrofuran-2-yloxy)methylene)-3,3a,4,8b-tetrahydro-2H-indeno[1,2-b]furan-2-one], for which, in data set [1] (setting [3]), the viability at 2.5 ppm stood at 68.6% and the viability at 5 ppm stood at 16.4%. Besides, in data set [1] (read-out: Reduction of viability), the cytotoxicity at 5 ppm is ~80%. Further, the Root tip morphology result in data set [2] (13.5 μM exogenously supplied) was “deformation of the root tips”. For the same compound, the “Starch granules in the columella cells” value in data set [2] (27 μM) is reported as “abolished the starch granules”. Further, the “Increase in the sub-G1/apoptotic fraction compared to vehicle” value in the data set on MDA-MB-436 is listed as 3.4 fold. For the same compound, the “Change in the subG1 fraction” value in the data set with MCF-7 is on record as “no change”.

For the compound `CC1=CC(O/C=C2/C(=O)c3c(c4cc(-c5scc6c5OCCO6)ccc4n3C)C2C)OC1=O` (stereo not drawn) [ST-362, (2E)-2-[(2,5-dihydro-4-methyl-5-oxofuran-2-yloxy)methylene]-1,2-dihydro-7-(2,3-dihydrothieno[3,4-b][1,4]dioxin-7-yl)-1,4-dimethyl-cyclopenta[b]indole-3-(4H)-one], the Cell culture growth entry in the data set with Candida oleophila was “reduction of cell culture growth”.
